Measured values published in patent US12173018B2, “Penicillin-binding protein inhibitors” (priority 2018, dated 2024).
Read-outs that look alike come from different tables or passages of the source.

Assays:
P. aeruginosa ATCC 35151 = assay: microbe, parasite or virus in culture; type: cell-based; conditions: Pseudomonas aeruginosa
Procedure, shortened: (§1)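 Strains are tested by standard CLSI broth microdilution. Log-phase cells, diluted by OD600 to 5×10^5 CFU/mL, meet 2-fold compound series and incubate 16-20 hours at 37° C before the lowest growth-free concentration is recorded.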

[1] = test system: P. aeruginosa (ΔmexAB-oprM); assay: microbe, parasite or virus in culture; type: cell-based; conditions: Pseudomonas aeruginosa, read-out: MIC P. aeruginosa ΔmexAB-OprM
Procedure, shortened: as §1

E. coli PBP3 = E. coli PBP3 (Escherichia coli (strain K12), UniProt P0AD68); assay: E. coli PBP3 Bocillin-FL fluorescence polarization competition binding assay
Procedure, shortened: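 Competition against 0.1 μM Bocillin-FL for binding to 1.5 μM purified protein, read by fluorescence polarization for 60 min. Compounds tested from 0 to 1000 μM; EC50 taken as the concentration reducing probe binding.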

P. aeruginosa PAO1 = assay: Broth microdilution MIC, P. aeruginosa PAO1; type: cell-based; conditions: Pseudomonas aeruginosa; P. aeruginosa PAO1, broth microdilution; read-out: MIC P. aeruginosa PAO1
Procedure, shortened: as §1

A. baumannii ATCC 19606 = assay: Broth microdilution MIC, A. baumannii ATCC 19606; type: cell-based; conditions: Acinetobacter baumannii, ATCC19606; A. baumannii ATCC 19606, broth microdilution; read-out: MIC A. baumannii ATCC 19606
Procedure, shortened: as §1

[2] = ATCC35151, hyper-permeable P. aeruginosa ATCC 35151, read-out: MIC P. aeruginosa ATCC 35151
[3] = fluorescence polarization competition binding with Bocillin-FL, read-out: E. coli K12 PBP3 Potency

Chain of E. coli PBP3 (P0AD68 whole entry): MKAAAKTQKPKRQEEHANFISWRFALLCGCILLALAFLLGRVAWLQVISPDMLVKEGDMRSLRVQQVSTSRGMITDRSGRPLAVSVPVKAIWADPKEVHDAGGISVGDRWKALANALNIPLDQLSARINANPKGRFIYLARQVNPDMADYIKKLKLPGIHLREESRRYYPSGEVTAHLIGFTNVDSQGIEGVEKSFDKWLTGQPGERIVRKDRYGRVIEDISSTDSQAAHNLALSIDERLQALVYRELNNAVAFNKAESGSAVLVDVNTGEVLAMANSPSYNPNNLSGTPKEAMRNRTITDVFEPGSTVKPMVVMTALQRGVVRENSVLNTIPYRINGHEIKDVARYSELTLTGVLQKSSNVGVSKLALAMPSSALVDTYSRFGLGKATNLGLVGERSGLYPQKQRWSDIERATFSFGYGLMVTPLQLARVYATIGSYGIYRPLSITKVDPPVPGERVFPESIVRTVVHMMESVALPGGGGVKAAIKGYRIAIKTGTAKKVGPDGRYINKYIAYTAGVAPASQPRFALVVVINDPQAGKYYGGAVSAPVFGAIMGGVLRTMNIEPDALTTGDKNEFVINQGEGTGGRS

Compound: CCN1CCN(C(=O)NC(C(=O)N[C@H]2Cc3cccc(C(=O)O)c3OB2O)c2ccc(O)c(O)c2F)C(=O)C1=O (some centres unmarked) [Example 70]
- MIC (P. aeruginosa ATCC 35151; [2]): < 0.25 µg/mL
- MIC [1]: 0.5 to 1 µg/mL
- EC50 (E. coli PBP3; [3]): < 30 µM
- MIC (P. aeruginosa PAO1): 8 to 16 µg/mL
- MIC (A. baumannii ATCC 19606): 0.5 to 1 µg/mL

Compound: O=C(O)c1cccc2c1OB(O)[C@@H](NC(=O)C(NC(=O)N1CCN(CCF)C(=O)C1=O)c1ccc(O)c(O)c1Cl)C2 (stereo partly drawn) [Example 71, (3R)-3-(2-(2-chloro-3,4-dihydroxyphenyl)-2-(4-(2-fluoroethyl)-2,3-dioxopiperazine-1-carboxamido)acetamido)-2-hydroxy-3,4-dihydro-2H-benzo[e][1,2]oxaborinine-8-carboxylic acid]
- MIC (P. aeruginosa ATCC 35151; [2]): 0.5 to 1 µg/mL
- MIC [1]: 2 to 4 µg/mL
- EC50 (E. coli PBP3; [3]): < 30 µM
- MIC (P. aeruginosa PAO1): 32 to 64 µg/mL
- MIC (A. baumannii ATCC 19606): 0.5 to 1 µg/mL

Compound: CCN1CCN(C(=O)NC(C(=O)N[C@H]2Cc3ccc(F)c(C(=O)O)c3OB2O)c2ccc(O)c(O)c2Cl)C(=O)C1=O (stereo partly drawn) [Example 124, (3R)-3-(2-(2-chloro-3,4-dihydroxyphenyl)-2-(4-ethyl-2,3-dioxopiperazine-1-carboxamido)acetamido)-7-fluoro-2-hydroxy-3,4-dihydro-2H-benzo[e][1,2]oxaborinine-8-carboxylic acid]
- MIC (P. aeruginosa ATCC 35151; [2]): < 0.25 µg/mL
- MIC [1]: < 0.25 µg/mL
- EC50 (E. coli PBP3): 30 to 500 µM
- MIC (P. aeruginosa PAO1): 0.5 to 1 µg/mL
- MIC (A. baumannii ATCC 19606): 0.5 to 1 µg/mL

Compound: CCCN1CCN(C(=O)NC(C(=O)N[C@H]2Cc3ccc(F)c(C(=O)O)c3OB2O)c2ccc(O)c(O)c2Cl)C(=O)C1=O (some centres unmarked) [Example 125]
- MIC (P. aeruginosa ATCC 35151; [2]): < 0.25 µg/mL
- MIC [1]: < 0.25 µg/mL
- EC50 (E. coli PBP3): 30 to 500 µM
- MIC (P. aeruginosa PAO1): 0.5 to 1 µg/mL
- MIC (A. baumannii ATCC 19606): < 0.25 µg/mL

Compound: CCN1CCN(C(=O)NC(C(=O)N[C@H]2Cc3ccc(F)c(C(=O)O)c3OB2O)c2cc(O)c(O)cc2F)C(=O)C1=O (stereo partly drawn) [Example 136, (3R)-3-(2-(4-ethyl-2,3-dioxopiperazine-1-carboxamido)-2-(2-fluoro-4,5-dihydroxyphenyl)acetamido)-7-fluoro-2-hydroxy-3,4-dihydro-2H-benzo[e][1,2]oxaborinine-8-carboxylic acid]
- MIC (P. aeruginosa ATCC 35151; [2]): 0.5 to 1 µg/mL
- MIC [1]: 0.5 to 1 µg/mL
- EC50 (E. coli PBP3; [3]): < 30 µM
- MIC (P. aeruginosa PAO1): 8 to 16 µg/mL
- MIC (A. baumannii ATCC 19606): 2 to 4 µg/mL

Compound: CCN1CCN(C(=O)NC(C(=O)N[C@H]2Cc3ccc(F)c(C(=O)O)c3OB2O)c2ncc(O)cc2F)C(=O)C1=O (stereo partly drawn) [Example 145, (3R)-3-(2-(4-ethyl-2,3-dioxopiperazine-1-carboxamido)-2-(3-fluoro-5-hydroxypyridin-2-yl)acetamido)-7-fluoro-2-hydroxy-3,4-dihydro-2H-benzo[e][1,2]oxaborinine-8-carboxylic acid]
- MIC (P. aeruginosa ATCC 35151; [2]): 8 to 16 µg/mL
- MIC [1]: 8 to 16 µg/mL
- EC50 (E. coli PBP3; [3]): < 30 µM
- MIC (P. aeruginosa PAO1): > 128 µg/mL
- MIC (A. baumannii ATCC 19606): > 128 µg/mL

Compound: CCN1CCN(C(=O)NC(C(=O)N[C@H]2Cc3ccc(F)c(C(=O)O)c3OB2O)c2ccc(O)c(O)c2F)C(=O)C1=O (stereo partly drawn) [Example 149, (3R)-3-(2-(4-ethyl-2,3-dioxopiperazine-1-carboxamido)-2-(2-fluoro-3,4-dihydroxyphenyl)acetamido)-7-fluoro-2-hydroxy-3,4-dihydro-2H-benzo[e][1,2]oxaborinine-8-carboxylic acid]
- MIC (P. aeruginosa ATCC 35151; [2]): < 0.25 µg/mL
- MIC [1]: < 0.25 µg/mL
- EC50 (E. coli PBP3): 30 to 500 µM
- MIC (P. aeruginosa PAO1): 2 to 4 µg/mL
- MIC (A. baumannii ATCC 19606): 8 to 16 µg/mL

Compound: CCN1CCN(C(=O)N[C@@H](C(=O)N[C@H]2Cc3ccc(F)c(C(=O)O)c3OB2O)c2ccc(O)c(F)c2)C(=O)C1=O [Example 161, (R)-3-((R)-2-(4-ethyl-2,3-dioxopiperazine-1-carboxamido)-2-(3-fluoro-4-hydroxyphenyl)acetamido)-7-fluoro-2-hydroxy-3,4-dihydro-2H-benzo[e][1,2]oxaborinine-8-carboxylic acid]
- MIC (P. aeruginosa ATCC 35151; [2]): < 0.25 µg/mL
- MIC [1]: 8 to 16 µg/mL
- EC50 (E. coli PBP3; [3]): < 30 µM
- MIC (P. aeruginosa PAO1): > 128 µg/mL
- MIC (A. baumannii ATCC 19606): > 128 µg/mL

Compound: CCN1CCN(C(=O)N[C@@H](C(=O)N[C@H]2Cc3cccc(C(=O)O)c3OB2O)c2ncc(O)cc2F)C(=O)C1=O [Example 177, (R)-3-((R)-2-(4-ethyl-2,3-dioxopiperazine-1-carboxamido)-2-(3-fluoro-5-hydroxypyridin-2-yl)acetamido)-2-hydroxy-3,4-dihydro-2H-benzo[e][1,2]oxaborinine-8-carboxylic acid]
- MIC (P. aeruginosa ATCC 35151; [2]): 0.5 to 1 µg/mL
- MIC [1]: 2 to 4 µg/mL
- EC50 (E. coli PBP3; [3]): < 30 µM
- MIC (P. aeruginosa PAO1): > 128 µg/mL
- MIC (A. baumannii ATCC 19606): > 128 µg/mL

Compound: CCN1CCN(C(=O)NC(C(=O)N[C@H]2Cc3ccc(F)c(C(=O)O)c3OB2O)c2ccc(S(N)(=O)=O)cc2)C(=O)C1=O (stereo partly drawn) [Example 181, (3R)-3-(2-(4-ethyl-2,3-dioxopiperazine-1-carboxamido)-2-(4-sulfamoylphenyl)acetamido)-7-fluoro-2-hydroxy-3,4-dihydro-2H-benzo[e][1,2]oxaborinine-8-carboxylic acid]
- MIC (P. aeruginosa ATCC 35151; [2]): 0.5 to 1 µg/mL
- MIC [1]: 8 to 16 µg/mL
- EC50 (E. coli PBP3): 30 to 500 µM
- MIC (P. aeruginosa PAO1): > 128 µg/mL
- MIC (A. baumannii ATCC 19606): > 128 µg/mL

Compound: NS(=O)(=O)c1ccc(C(NC(=O)N2CCN(CCF)C(=O)C2=O)C(=O)N[C@H]2Cc3ccc(F)c(C(=O)O)c3OB2O)cc1 (stereo partly drawn) [Example 182, (3R)-7-fluoro-3-(2-(4-(2-fluoroethyl)-2,3-dioxopiperazine-1-carboxamido)-2-(4-sulfamoylphenyl)acetamido)-2-hydroxy-3,4-dihydro-2H-benzo[e][1,2]oxaborinine-8-carboxylic acid]
- MIC (P. aeruginosa ATCC 35151; [2]): 0.5 to 1 µg/mL
- MIC [1]: 8 to 16 µg/mL
- EC50 (E. coli PBP3): 30 to 500 µM
- MIC (P. aeruginosa PAO1): > 128 µg/mL
- MIC (A. baumannii ATCC 19606): > 128 µg/mL

Compound: O=C(O)c1c(F)ccc2c1OB(O)[C@@H](NC(=O)C(NC(=O)N1CCN(CCF)C(=O)C1=O)c1ncc(O)cc1F)C2 (stereo partly drawn) [Example 183, (3R)-7-fluoro-3-(2-(3-fluoro-5-hydroxypyridin-2-yl)-2-(4-(2-fluoroethyl)-2,3-dioxopiperazine-1-carboxamido)acetamido)-2-hydroxy-3,4-dihydro-2H-benzo[e][1,2]oxaborinine-8-carboxylic acid]
- MIC (P. aeruginosa ATCC 35151; [2]): < 0.25 µg/mL
- MIC [1]: 32 to 64 µg/mL
- EC50 (E. coli PBP3; [3]): < 30 µM
- MIC (P. aeruginosa PAO1): > 128 µg/mL
- MIC (A. baumannii ATCC 19606): > 128 µg/mL

Compound: CCN1CCN(C(=O)N[C@H](C(=O)N[C@H]2Cc3ccc(F)c(C(=O)O)c3OB2O)c2ccc(O)c(O)c2Cl)C(=O)C1=O [Example 188, (R)-3-((S)-2-(2-chloro-3,4-dihydroxyphenyl)-2-(4-ethyl-2,3-dioxopiperazine-1-carboxamido)acetamido)-7-fluoro-2-hydroxy-3,4-dihydro-2H-benzo[e][1,2]oxaborinine-8-carboxylic acid]
- MIC (P. aeruginosa ATCC 35151; [2]): 0.5 to 1 µg/mL
- MIC [1]: 0.5 to 1 µg/mL
- EC50 (E. coli PBP3): 30 to 500 µM
- MIC (P. aeruginosa PAO1): 8 to 16 µg/mL
- MIC (A. baumannii ATCC 19606): 32 to 64 µg/mL

Compound: CCN1CCN(C(=O)N[C@@H](C(=O)N[C@H]2Cc3ccc(F)c(C(=O)O)c3OB2O)c2ccc(O)c(O)c2Cl)C(=O)C1=O [Example 189, (R)-3-((R)-2-(2-chloro-3,4-dihydroxyphenyl)-2-(4-ethyl-2,3-dioxopiperazine-1-carboxamido)acetamido)-7-fluoro-2-hydroxy-3,4-dihydro-2H-benzo[e][1,2]oxaborinine-8-carboxylic acid]
- MIC (P. aeruginosa ATCC 35151; [2]): < 0.25 µg/mL
- MIC [1]: < 0.25 µg/mL
- EC50 (E. coli PBP3; [3]): < 30 µM
- MIC (P. aeruginosa PAO1): < 0.25 µg/mL
- MIC (A. baumannii ATCC 19606): < 0.25 µg/mL

Compound: NCCCN1CCN(C(=O)N[C@@H](C(=O)N[C@H]2Cc3ccc(F)c(C(=O)O)c3OB2O)c2ccc(O)c(O)c2Cl)C(=O)C1=O [Example 236, (R)-3-((R)-2-(4-(3-aminopropyl)-2,3-dioxopiperazine-1-carboxamido)-2-(2-chloro-3,4-dihydroxyphenyl)acetamido)-7-fluoro-2-hydroxy-3,4-dihydro-2H-benzo[e][1,2]oxaborinine-8-carboxylic acid]
- MIC (P. aeruginosa ATCC 35151; [2]): < 0.25 µg/mL
- MIC [1]: < 0.25 µg/mL
- EC50 (E. coli PBP3): 30 to 500 µM
- MIC (A. baumannii ATCC 19606): < 0.25 µg/mL

Compound: CCN1C[C@H](CO)N(C(=O)NC(C(=O)N[C@H]2Cc3ccc(F)c(C(=O)O)c3OB2O)c2ccc(O)c(O)c2Cl)C(=O)C1=O (stereo partly drawn) [Example 237, (3R)-3-(2-(2-chloro-3,4-dihydroxyphenyl)-2-((R)-4-ethyl-6-(hydroxymethyl)-2,3-dioxopiperazine-1-carboxamido)acetamido)-7-fluoro-2-hydroxy-3,4-dihydro-2H-benzo[e][1,2]oxaborinine-8-carboxylic acid]
- MIC (P. aeruginosa ATCC 35151; [2]): < 0.25 µg/mL
- MIC [1]: < 0.25 µg/mL
- EC50 (E. coli PBP3; [3]): < 30 µM
- MIC (A. baumannii ATCC 19606): < 0.25 µg/mL

Compound: CCN1C[C@H](CCN)N(C(=O)NC(C(=O)N[C@H]2Cc3ccc(F)c(C(=O)O)c3OB2O)c2ccc(O)c(O)c2Cl)C(=O)C1=O (stereo partly drawn) [Example 238, (3R)-3-(2-((S)-6-(2-aminoethyl)-4-ethyl-2,3-dioxopiperazine-1-carboxamido)-2-(2-chloro-3,4-dihydroxyphenyl)acetamido)-7-fluoro-2-hydroxy-3,4-dihydro-2H-benzo[e][1,2]oxaborinine-8-carboxylic acid]
- MIC (P. aeruginosa ATCC 35151; ATCC35151, read-out: MIC P. aeruginosa ATCC 35151): < 0.25 µg/mL
- MIC [1]: < 0.25 µg/mL
- EC50 (E. coli PBP3): 30 to 500 µM
- MIC (A. baumannii ATCC 19606): 0.5 to 1 µg/mL

Compound: CNCCN1CCN(C(=O)NC(C(=O)N[C@H]2Cc3cccc(C(=O)O)c3OB2O)c2ccc(O)c(O)c2Cl)C(=O)C1=O (stereo partly drawn) [Example 239, (3R)-3-(2-(2-chloro-3,4-dihydroxyphenyl)-2-(4-(2-(methylamino)ethyl)-2,3-dioxopiperazine-1-carboxamido)acetamido)-2-hydroxy-3,4-dihydro-2H-benzo[e][1,2]oxaborinine-8-carboxylic acid]
- MIC (P. aeruginosa ATCC 35151; [2]): < 0.25 µg/mL
- MIC [1]: < 0.25 µg/mL
- EC50 (E. coli PBP3): 30 to 500 µM
- MIC (A. baumannii ATCC 19606): 0.5 to 1 µg/mL
